# In patent publication US6825193B2, “Citric acid salt of a therapeutic compound and pharmaceutical compositions thereof” (Pfizer Inc., priority 2001, dated 2004):
# Entries after “also recorded” stand apart in the source; their conditions may differ. Counter-ions that a name gives are not always drawn.
# Tests used:
# Type in all cases: physicochemical
# [1] = Aqueous solubility and native pH in aqueous solution
# [2] = Solid state stability (light, elevated temperature, high humidity challenges); settings: elevated temperatures
# [3] = Compatibility with drug product formulation excipients
# [4] = Hygroscopicity on exposure to 90% relative humidity in a moisture chamber
compound,measurement,setting,value
"CN1CCN(c2ccccc2/C=C2\SCCN(c3ccc(Cl)c(Cl)c3)C2=O)CC1 [citrate salt, 4-(3,4-dichlorophenyl)-2-[2-(4-methylpiperazin-1-yl)-benzylidene]-thiomorpholin-3-one]",aqueous solubility (in words),[1],high aqueous solubility
same,native pH in aqueous solution,[1]; aqueous solution at solubility 1.3 mg/ml,3.37
same,solubility,"[1]; water, native pH 3.37",1300 µg/mL
same,solid state stability (in words),[2],excellent solid state stability; also recorded: superior to previously known salts
same,inertness / compatibility towards common formulation excipients (in words),[3],relative inertness towards common excipients; also recorded: superior to previously known salts
same,hygroscopicity (in words),[4],only slightly hygroscopic
same,hygroscopicity,[4]; at 90% relative humidity,approximately 1.27%
same,hygroscopicity,[4]; on exposure to 90% relative humidity in a moisture chamber,approximately 1.27 % wt/wt
